From patent US20250319056A1, “METHODS FOR TREATING CANCER” (THE TRUSTEES OF INDIANA UNIVERSITY, priority 2024, published 2025)
Read-outs that look alike come from different tables or passages of the source.

Tests used:
[1] = AlamarBlue cell viability assay, non-cancerous colon FHC cells; details: human, FHC non-cancerous colon cells, Human Cell Viability CC50 Colon (FHC), non-cancerous colon cells, AlamarBlue, 48 h
HT-29 cells = test: AlamarBlue cell viability assay, HT-29 colon cancer cells; format: cell-based; details: Homo sapiens, 48 h with compound, ^BP = curve baseline plateaued between ~10-20%
[2] = AlamarBlue cell viability assay, non-cancerous intestine FHs-74Int cells; details: human, FHs-74Int non-cancerous intestine cells, Human Cell Viability CC50 Intestine (FHs 74Int), non-cancerous intestine cells, AlamarBlue, 48 h
GroEL/ES = target: T1, GroEL/ES (Escherichia coli, UniProt P0A6F5); test: GroEL/ES-dMDH refolding assay; format: biochemical, E. coli
T1 construct: made in house; host or cells: NEB 5-alpha E. coli for GroEL; E. coli BL21 (DE3) for GroES

NCI-60 cancer cell panel [3] = test: NCI-60 panel single-dose cell growth screen; format: cell-based; details: single dose 10 μM; 0 = cytostatic, -100% = cytocidal, +100% = growth
Protocol: FIGS. 10A-10J show cell growth results for 10 lead candidate inhibitors (compound 162, FIG. 10A; compound 163, FIG. 10B; compound 164, FIG. 10C; compound 4, FIG. 10D; compound 165, FIG. 10E; compound 139, FIG. 10F; compound 132, FIG. 10G; compound 143, FIG. 10H; compound 147, FIG. 10I; compound 128, FIG. 10J) tested at 10 μM against the NCI cancer cell panel. Zero indicates no cells growth/death from what was initially plated (cytostatic inhibition). −100% indicates […] (cytocidal inhibition). +100% indicates cell growth.
In a previous study evaluating the anti-cancer effects of ABK inhibitors, the National Cancer Institute (NCI) database was explored for existing cytotoxicity results for any compounds bearing α,β-unsaturated ketone moieties against the comprehensive NCI-60 cancer cell panel. […] The HQ-NAH and NF-NAH inhibitor library was explored based on the similarity to Nifuroxazide's scaffold. […] Initial screening was performed at a single concentration of 10 μM, and cell growth results are presented in aggregate based on cancer cell origin (FIGS. 10A-10J).

HCT-116 cells = test: AlamarBlue cell viability assay, HCT-116 colon cancer cells; format: cell-based, human; details: for Average Selectivity Index: CC50 non-cancer cells (FHC, FHs 74Int) compared to EC50 HCT-116; for EC50: read-out: Human Cell Viability EC50 Colon Cancer (HCT 116)
DLD-1 cells = test: AlamarBlue cell viability assay, DLD-1 colon cancer cells; format: cell-based; details: Homo sapiens, 48 h with compound, ^BP = curve baseline plateaued between ~10-20%, read-out: Human Cell Viability EC50 Colon Cancer (DLD1)
mHSP60/10 = target: T2, mHSP60/10 (Homo sapiens, UniProt P10809); test: mHSP60/10-mediated dMDH refolding assay; format: biochemical
T2 construct: Processed human HSP60 (mHSP60—that would be in mitochondria) was expressed in Rosetta™ 2 (DE3) E. coli; octa-Histidine tag (TEV-cleavable) (N, cleaved yes); made in house; host or cells: E. coli Rosetta 2 (DE3) for mHSP60; Rosetta 2 (DE3) pLysS for HSP10

NCI-60 cancer cell panel [4] = test: NCI-60 panel dose-response cell growth testing; format: cell-based; details: follow-up dose response, range across NCI-60 cell lines
From the text: FIGS. 11A-11G show cell growth results in dose-response for 7 lead candidate inhibitors (compound 162, FIG. 11A; compound 164, FIG. 11B; compound 128, FIG. 11C compound 165, FIG. 11D; compound 139, FIG. 11E; compound 143, FIG. 11F; compound 147, FIG. 11G) from initial single-dose NCI-60 screen.
Therefore, they appeared to act in a cytocidal manner.

[5] = Homo sapiens, HCT-116, 48 h, AlamarBlue, 48 h with compound
[6] = denatured malate dehydrogenase client, read-out: IC50 mHSP60/10-dMDH refolding

T2 sequence (P10809 27-573): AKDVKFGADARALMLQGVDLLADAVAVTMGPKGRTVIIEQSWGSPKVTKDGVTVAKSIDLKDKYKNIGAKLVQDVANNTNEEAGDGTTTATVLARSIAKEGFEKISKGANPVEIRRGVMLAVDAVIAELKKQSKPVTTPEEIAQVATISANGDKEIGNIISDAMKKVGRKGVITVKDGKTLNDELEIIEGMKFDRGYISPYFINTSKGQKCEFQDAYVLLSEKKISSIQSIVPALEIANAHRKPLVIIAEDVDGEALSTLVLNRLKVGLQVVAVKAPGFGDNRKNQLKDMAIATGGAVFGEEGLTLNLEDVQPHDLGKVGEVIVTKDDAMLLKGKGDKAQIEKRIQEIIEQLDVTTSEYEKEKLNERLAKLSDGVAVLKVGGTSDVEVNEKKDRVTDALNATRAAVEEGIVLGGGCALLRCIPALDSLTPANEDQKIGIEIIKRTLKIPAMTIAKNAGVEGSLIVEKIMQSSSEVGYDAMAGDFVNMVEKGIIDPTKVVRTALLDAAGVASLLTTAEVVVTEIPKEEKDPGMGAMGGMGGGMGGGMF
T1 sequence (P0A6F5 2-548): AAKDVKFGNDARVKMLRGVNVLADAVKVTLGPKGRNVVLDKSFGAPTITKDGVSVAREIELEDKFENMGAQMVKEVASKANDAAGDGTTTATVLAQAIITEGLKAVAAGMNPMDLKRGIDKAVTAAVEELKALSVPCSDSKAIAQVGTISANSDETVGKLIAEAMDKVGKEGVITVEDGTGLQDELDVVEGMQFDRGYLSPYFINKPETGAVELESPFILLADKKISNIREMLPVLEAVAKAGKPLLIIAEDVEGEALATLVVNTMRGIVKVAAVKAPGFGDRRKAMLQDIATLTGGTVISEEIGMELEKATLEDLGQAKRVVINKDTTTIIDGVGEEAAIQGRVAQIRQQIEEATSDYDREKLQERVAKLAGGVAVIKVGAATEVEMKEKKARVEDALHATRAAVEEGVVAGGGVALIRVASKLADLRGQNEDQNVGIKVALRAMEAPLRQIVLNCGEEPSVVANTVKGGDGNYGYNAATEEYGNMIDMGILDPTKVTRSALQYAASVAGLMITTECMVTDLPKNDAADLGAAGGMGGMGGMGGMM

SMILES | CC50 at 48 h [1] [µM] | EC50 (HT-29 cells) [µM] | CC50 at 48 h [2] [µM] | Average Selectivity Index (HCT-116 cells) | EC50 (HCT-116 cells; [5]) [µM] | EC50 (DLD-1 cells) [µM] | CC50 (FHs-74Int cells) [µM] | CC50 (FHC cells) [µM] | further results
O=C(/C=C/c1cccc([N+](=O)[O-])c1)c1ccc(NC(=O)c2ccco2)cc1 [Compound 4, (E)-N-(4-(3-(3-nitrophenyl)acryloyl)phenyl)furan-2-carboxamide] | > 100 | 3.6 | 54 | 19.1 | 4 | 39.7 | – | – | IC50 (GroEL/ES): 0.8 to 9 µM; cell growth % NCI cancer cell panel (NCI-60 cancer cell panel [3]): largely inactive; IC50 (mHSP60/10; [6]): 0.8 to 9 µM
COc1ccc(-c2ccc3cc(C(=O)O)ccc3c2)cc1C12CC3CC(CC(C3)C1)C2 [Compound 25, Adapalene, reference compound] | 43.7 | 5.3 | 18.5 | 5.4 | 5.8 | 7.9 | – | – | IC50 (GroEL/ES): 0.8 to 9 µM; IC50 (mHSP60/10; [6]): 0.8 to 9 µM
Oc1c(Cl)cc(Cl)c(Cl)c1Cc1c(O)c(Cl)cc(Cl)c1Cl [Compound 32, Hexachlorophene, reference compound] | – | – | – | – | – | – | – | – | IC50 (GroEL/ES): 0.8 to 9 µM; EC50 (HCT-116 cells; Homo sapiens, HCT-116, 48 h): 4.6 µM; IC50 (mHSP60/10): 0.8 to 9 µM
CN(C)c1ccc(C(=C2C=CC(=[N+](C)C)C=C2)c2ccc(N(C)C)cc2)cc1 [Compound 56, Crystal Violet, reference compound] | 8.6 | 0.1 | 1.6 | 9.4 | 0.54 | 0.2 | – | – | IC50 (GroEL/ES): 0.8 to 9 µM; EC50 (HCT-116 cells; AlamarBlue, 48 h with compound): 0.5 µM; IC50 (mHSP60/10; [6]): 0.8 to 9 µM
CCCCCOc1ccc(/C=C2\Oc3c(ccc(O)c3O)C2=O)c(O)c1 [Compound 86] | > 100 | 5.9 | > 100 | 8.0 | 12.5 | 23 | – | – | IC50 (GroEL/ES): 0.8 to 9 µM; IC50 (mHSP60/10; [6]): 0.8 to 9 µM
Oc1cccc(C(Nc2nccs2)c2ccc3cccnc3c2O)c1 (stereo not drawn) [Compound 90] | 66.6 | 8.3 | 64.6 | 26.2 | 2.5 | 15 | – | – | IC50 (GroEL/ES): 0.8 to 9 µM; IC50 (mHSP60/10; [6]): 0.8 to 9 µM
O=C(N/N=C/c1ccc([N+](=O)[O-])o1)c1cccc(Oc2ccccc2)c1 [Compound 128, N′-((5-nitrofuran-2-yl)methylene)-3-phenoxybenzohydrazide] | 61 | 1.6 | 60 | 17.4 | 3.5 | 7.3 | – | – | cell growth % NCI cancer cell panel (NCI-60 cancer cell panel [3]): a range of positive, negative, and zero growth; GI50 (NCI-60 cancer cell panel [4]): 1 to 31 µM
O=C(N/N=C/c1ccc(O)c2ncccc12)c1ccccc1 [Compound 137] | 74 | 2.5 | 57 | 11 | 6.1 | 2.8 | – | – | –
O=C(N/N=C/c1ccc(O)c2ncccc12)c1ccc(O)cc1 [Compound 139, 4-hydroxy-N′-((8-hydroxyquinolin-5-yl)methylene)benzohydrazide] | > 100 | 6.3 | 56 | 11 | 7.4 | 19 | – | – | cell growth % NCI cancer cell panel (NCI-60 cancer cell panel [3]): around 0%; GI50 (NCI-60 cancer cell panel [4]): 1 to 5 µM
O=C(N/N=C/c1ccc(O)c2ncccc12)c1cccc2ccccc12 [Compound 141] | 46 | 1.5 | 60 | 13 | 4.1 | 1.6 | – | – | –
O=C(N/N=C/c1ccc(O)c2ncccc12)c1ccccc1Oc1ccccc1 [Compound 142] | 71 | 3.7 | 87 | 13 | 6.3 | 1.6 | – | – | –
O=C(N/N=C/c1ccc(O)c2ncccc12)c1cccc(Oc2ccccc2)c1 [Compound 143, N′-((8-hydroxyquinolin-5-yl)methylene)-3-phenoxybenzohydrazide] | 41 | – | 21 | 4.8 | 6.5 | – | – | – | cell growth % NCI cancer cell panel (NCI-60 cancer cell panel [3]): negative % growth; GI50 (NCI-60 cancer cell panel [4]): 0.2 to 0.4 µM
CCN(CC)S(=O)(=O)c1cccc(C(=O)N/N=C/c2ccc(O)c3ncccc23)c1 [Compound 144] | 34 | 4.4 | 59 | 9.5 | 4.9 | 1.3 | – | – | –
O=C(N/N=C/c1ccc(O)c2ncccc12)c1ccc(NS(=O)(=O)c2cccs2)cc1 [Compound 145] | 24 | 2.9 | 6.1 | 6.2 | 2.4 | 5.7 | – | – | –
O=C(N/N=C/c1ccc(O)c2ncccc12)c1ccc(NS(=O)(=O)c2ccc(Br)cc2)cc1 [Compound 146] | 59 | 1.4 | 91 | 14 | 5.2 | 6 | – | – | –
COc1ccc(C(=O)N/N=C/c2ccc(O)c3ccccc23)cc1 [Compound 148] | – | – | – | – | – | – | > 100 | > 100 | –
O=C(N/N=C/c1ccc(O)c2ccccc12)c1ccccc1 [Compound 149] | – | – | – | – | – | – | > 100 | > 100 | –
COc1ccc(C(=O)N/N=C/c2cccc3ncccc23)cc1 [Compound 150] | – | – | – | – | – | – | > 100 | > 100 | –
O=C(N/N=C/c1cccc2ncccc12)c1ccccc1 [Compound 151] | – | – | – | – | – | – | > 100 | > 100 | –
COc1ccc(C(=O)N/N=C/c2cccc3ccccc23)cc1 [Compound 152] | – | – | – | – | – | – | > 100 | > 100 | –
O=C(N/N=C/c1cccc2ccccc12)c1ccccc1 [Compound 153] | – | – | – | – | – | – | > 100 | ≥ 100 | –
COc1ccc(C(=O)N/N=C/c2ccc(O)cc2)cc1 [Compound 154] | – | – | – | – | – | – | > 100 | > 100 | –
O=C(N/N=C/c1ccc(O)cc1)c1ccccc1 [Compound 155] | – | – | – | – | – | – | > 100 | > 100 | –
COc1ccc(C(=O)N/N=C/c2ccccc2)cc1 [Compound 156] | – | – | – | – | – | – | > 100 | > 100 | –
O=C(N/N=C/c1ccccc1)c1ccccc1 [Compound 157] | – | – | – | – | – | – | > 100 | > 100 | –
Cc1ccc(S(=O)(=O)Nc2ccc(-c3nc4cc(NS(=O)(=O)c5ccc(C)cc5)ccc4o3)cc2)cc1 [Compound 162, 4-methyl-N-(4-(5-((4-methylphenyl)sulfonamido)benzo[d]oxazol-2-yl)phenyl)benzenesulfonamide] | – | – | – | – | – | – | – | – | cell growth % NCI cancer cell panel (NCI-60 cancer cell panel [3]): negative % growth; GI50 (NCI-60 cancer cell panel [4]): 1 to 5 µM
COc1ccccc1S(=O)(=O)Nc1ccc(-c2nc3cc(NS(=O)(=O)c4ccccc4OC)ccc3o2)cc1 [Compound 164, 2-methoxy-N-(4-(5-((2-methoxyphenyl)sulfonamido)benzo[d]oxazol-2-yl)phenyl)benzenesulfonamide] | – | – | – | – | – | – | – | – | cell growth % NCI cancer cell panel (NCI-60 cancer cell panel [3]): around 0%; GI50 (NCI-60 cancer cell panel [4]): 1 to 5 µM
O=C(Nc1ccc(Sc2nc3ccccc3s2)c(Cl)c1)c1cc(Br)ccc1O [Compound 165, N-(4-(Benzo[d]thiazol-2-ylthio)-3-chlorophenyl)-5-bromo-2-hydroxybenzamide] | – | – | – | – | – | – | – | – | cell growth % NCI cancer cell panel (NCI-60 cancer cell panel [3]): negative % growth; GI50 (NCI-60 cancer cell panel [4]): 1 to 5 µM
O=C(N/N=C/c1ccc([N+](=O)[O-])o1)c1ccc(O)cc1 [Nifuroxazide (Nfz), Nifuroxazide, reference compound] | 66 | 3.5 | 62 | 7.7 | 8.3 | 1.5 | – | – | –
